Results published in ChEMBL document CHEMBL1201862, “PubChem BioAssay data set” (2004).
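Values below derive from 48-hour exposures of cells grown in 96-well plates, with endpoints linearly interpolated between the two concentrations bracketing the appropriate inhibition level. GI50 is the concentration that inhibits growth by half.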 Active and inactive are the calls of the source. No stated cut-off is given here; in the data, active = GI50 up to about 1.1 µM and inactive = higher.

Experiments:
Assay in all cases: inhibition of tumour cell growth, NCI panel, 48 h
SR = system: SR
K562 = system: K562
SK-OV-3 = system: SK-OV-3
NCI-H522 = system: NCI-H522
SK-MEL-5 = system: SK-MEL-5
KM12 = system: KM12
HOP-62 = system: HOP-62
NCI-H460 = system: NCI-H460
SNB-78 = system: SNB-78
SF-268 = system: SF-268
LXFL 529 = system: LXFL 529
SN12C = system: SN12C
M14 = system: M14
HL-60 = system: HL-60
SNB-75 = system: SNB-75
OVCAR-4 = system: OVCAR-4
SF-539 = system: SF-539
A549 = system: A549
CAKI-1 = system: CAKI-1
U-251 = system: U-251
KM-20L2 = system: KM-20L2
CCRF-CEM = system: CCRF-CEM
COLO 205 = system: COLO 205
HOP-92 = system: HOP-92
M19-MEL = system: M19-MEL
SK-MEL-28 = system: SK-MEL-28
786-0 = system: 786-0
SF-295 = system: SF-295
SK-MEL-2 = system: SK-MEL-2
OVCAR-3 = system: OVCAR-3
SW-620 = system: SW-620
IGROV-1 = system: IGROV-1
DMS-114 = system: DMS-114
NCI-H226 = system: NCI-H226
RPMI-8226 = system: RPMI-8226
NCI-H23 = system: NCI-H23
HOP-18 = system: HOP-18
OVCAR-8 = system: OVCAR-8
LOX IMVI = system: LOX IMVI
UACC-62 = system: UACC-62
RXF 393 = system: RXF 393
Malme-3M = system: Malme-3M
HCT-116 = system: HCT-116
MOLT-4 = system: MOLT-4
OVCAR-5 = system: OVCAR-5
DLD-1 = system: DLD-1
UO-31 = system: UO-31
HCT-15 = system: HCT-15
HT-29 = system: HT-29
DMS-273 = system: DMS-273
UACC-257 = system: UACC-257
TK-10 = system: TK-10
ACHN = system: ACHN

Compound: Cc1cc(O)nc(NNC(C#N)c2cccc([N+](=O)[O-])c2)n1 (stereo unspecified)
- GI50 (SR): 74 µM (inactive)
- GI50 (K562): > 100 µM (inactive)
- GI50 (SK-OV-3): > 100 µM (inactive)
- GI50 (NCI-H522): > 100 µM (inactive)
- GI50 (SK-MEL-5): > 100 µM (inactive)
- GI50 (KM12): > 100 µM (inactive)
- GI50 (HOP-62): > 100 µM (inactive)
- GI50 (NCI-H460): > 100 µM (inactive)
- GI50 (SNB-78): > 100 µM (inactive)
- GI50 (SF-268): > 100 µM (inactive)
- GI50 (LXFL 529): > 100 µM (inactive)
- GI50 (SN12C): > 100 µM (inactive)
- GI50 (M14): > 100 µM (inactive)
- GI50 (HL-60): > 100 µM (inactive)
- GI50 (SNB-75): 65.3 µM (inactive)
- GI50 (OVCAR-4): > 100 µM (inactive)
- GI50 (SF-539): > 100 µM (inactive)
- GI50 (A549): > 100 µM (inactive)
- GI50 (CAKI-1): > 100 µM (inactive)
- GI50 (U-251): > 100 µM (inactive)
- GI50 (KM-20L2): > 100 µM (inactive)
- GI50 (CCRF-CEM): > 100 µM (inactive)
- GI50 (COLO 205): > 100 µM (inactive)
- GI50 (HOP-92): > 100 µM (inactive)
- GI50 (M19-MEL): > 100 µM (inactive)
- GI50 (SK-MEL-28): > 100 µM (inactive)
- GI50 (786-0): > 100 µM (inactive)
- GI50 (SF-295): > 100 µM (inactive)
- GI50 (SK-MEL-2): > 100 µM (inactive)
- GI50 (OVCAR-3): > 100 µM (inactive)
- GI50 (SW-620): > 100 µM (inactive)
- GI50 (IGROV-1): > 100 µM (inactive)
- GI50 (DMS-114): > 100 µM (inactive)
- GI50 (NCI-H226): > 100 µM (inactive)
- GI50 (RPMI-8226): > 100 µM (inactive)
- GI50 (NCI-H23): > 100 µM (inactive)
- GI50 (HOP-18): > 100 µM (inactive)
- GI50 (OVCAR-8): > 100 µM (inactive)
- GI50 (LOX IMVI): > 100 µM (inactive)
- GI50 (UACC-62): > 100 µM (inactive)
- GI50 (RXF 393): > 100 µM (inactive)
- GI50 (Malme-3M): > 100 µM (inactive)
- GI50 (HCT-116): > 100 µM (inactive)
- GI50 (MOLT-4): > 100 µM (inactive)
- GI50 (OVCAR-5): > 100 µM (inactive)
- GI50 (DLD-1): > 100 µM (inactive)
- GI50 (UO-31): 73.1 µM (inactive)
- GI50 (HCT-15): > 100 µM
- GI50 (HT-29): > 100 µM (inactive)
- GI50 (DMS-273): > 100 µM (inactive)
- GI50 (UACC-257): > 100 µM (inactive)
- GI50 (TK-10): > 100 µM (inactive)
- GI50 (ACHN): > 100 µM (inactive)

Compound: COc1cc(C(C#N)NNC(=O)Cc2ccccc2)cc(OC)c1OC (stereo unspecified)
- GI50 (SR): > 100 µM (inactive)
- GI50 (K562): > 100 µM (inactive)
- GI50 (SK-OV-3): > 100 µM (inactive)
- GI50 (NCI-H522): > 100 µM (inactive)
- GI50 (SK-MEL-5): > 100 µM (inactive)
- GI50 (KM12): > 100 µM (inactive)
- GI50 (HOP-62): > 100 µM (inactive)
- GI50 (NCI-H460): > 100 µM (inactive)
- GI50 (SNB-78): > 100 µM (inactive)
- GI50 (SF-268): > 100 µM (inactive)
- GI50 (LXFL 529): > 100 µM (inactive)
- GI50 (SN12C): > 100 µM (inactive)
- GI50 (M14): > 100 µM (inactive)
- GI50 (HL-60): > 100 µM (inactive)
- GI50 (SNB-75): 35.5 µM (inactive)
- GI50 (OVCAR-4): > 100 µM (inactive)
- GI50 (SF-539): > 100 µM (inactive)
- GI50 (A549): > 100 µM (inactive)
- GI50 (CAKI-1): > 100 µM (inactive)
- GI50 (U-251): > 100 µM (inactive)
- GI50 (KM-20L2): > 100 µM (inactive)
- GI50 (CCRF-CEM): > 10 µM (inactive)
- GI50 (COLO 205): > 100 µM (inactive)
- GI50 (HOP-92): 95.3 µM (inactive)
- GI50 (M19-MEL): > 100 µM (inactive)
- GI50 (SK-MEL-28): > 100 µM (inactive)
- GI50 (786-0): > 100 µM (inactive)
- GI50 (SF-295): > 100 µM (inactive)
- GI50 (SK-MEL-2): > 100 µM (inactive)
- GI50 (OVCAR-3): > 100 µM (inactive)
- GI50 (SW-620): > 100 µM (inactive)
- GI50 (IGROV-1): > 100 µM (inactive)
- GI50 (DMS-114): 99.1 µM (inactive)
- GI50 (NCI-H226): > 100 µM (inactive)
- GI50 (RPMI-8226): > 100 µM (inactive)
- GI50 (NCI-H23): > 100 µM (inactive)
- GI50 (HOP-18): > 100 µM (inactive)
- GI50 (OVCAR-8): > 100 µM (inactive)
- GI50 (LOX IMVI): > 100 µM (inactive)
- GI50 (UACC-62): > 100 µM (inactive)
- GI50 (RXF 393): > 100 µM (inactive)
- GI50 (Malme-3M): > 100 µM (inactive)
- GI50 (HCT-116): > 100 µM (inactive)
- GI50 (MOLT-4): > 100 µM (inactive)
- GI50 (OVCAR-5): > 100 µM (inactive)
- GI50 (DLD-1): > 100 µM (inactive)
- GI50 (UO-31): 72.3 µM (inactive)
- GI50 (HCT-15): > 100 µM
- GI50 (HT-29): > 100 µM (inactive)
- GI50 (DMS-273): > 100 µM (inactive)
- GI50 (UACC-257): > 100 µM (inactive)
- GI50 (TK-10): > 100 µM (inactive)
- GI50 (ACHN): > 100 µM (inactive)
